Laboratory results as given in the supplement of paper PMC8967900.

Columns and labels:
Assay in all cases: selective drug sensitivity score (sDSS, relative to normal bone marrow) (sDSS (score)); higher = more potent and effective on the cell line relative to normal bone marrow cells
Settings in all cases: 72 h
PEER = tested on: PEER
COG-LL-355h = tested on: COG-LL-355h
COG-LL-332h = tested on: COG-LL-332h
P12-ICHIKAWA = tested on: P12-ICHIKAWA
TANOUE = tested on: TANOUE
HPB-ALL = tested on: HPB-ALL
NALL-1 = tested on: NALL-1
MHH-CALL-4 = tested on: MHH-CALL-4
KARPAS-45 = tested on: KARPAS-45
TMD5 = tested on: TMD5
697 = tested on: 697
COG-LL-317 = tested on: COG-LL-317
KOPN-8 = tested on: KOPN-8
SEM cells = tested on: SEM cells
LC4-1 = tested on: LC4-1
DND-41 = tested on: DND-41
ALL-SIL = tested on: ALL-SIL
MOLT-4 = tested on: MOLT-4
KASUMI-2 = tested on: KASUMI-2
MOLT-14 = tested on: MOLT-14
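Note: ALL cell lines in 384-well plates, five doses spanning 10,000-fold, each plate scaled between vehicle and 100 µmol/L benzalkonium chloride controls, sDSS an adapted area-under-curve metric.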

Row | SMILES | selective drug sensitivity score (PEER) | selective drug sensitivity score (COG-LL-355h) | selective drug sensitivity score (COG-LL-332h) | selective drug sensitivity score (P12-ICHIKAWA) | selective drug sensitivity score (TANOUE) | selective drug sensitivity score (HPB-ALL) | selective drug sensitivity score (NALL-1) | selective drug sensitivity score (MHH-CALL-4) | selective drug sensitivity score (KARPAS-45) | selective drug sensitivity score (TMD5) | selective drug sensitivity score 697 | selective drug sensitivity score (COG-LL-317) | selective drug sensitivity score (KOPN-8) | selective drug sensitivity score (SEM cells) | selective drug sensitivity score (LC4-1) | selective drug sensitivity score (DND-41) | selective drug sensitivity score (ALL-SIL) | selective drug sensitivity score (MOLT-4) | selective drug sensitivity score (KASUMI-2) | selective drug sensitivity score (MOLT-14)
1 | C[C@H]1C[C@@H]2[C@H]([C@@H](O)C[C@@]3(C)[C@H]2CC[C@]3(O)C(=O)CO)[C@@]2(C)C=CC(=O)C=C12 [Methylprednisolone] (top concentration 10000 nM) | -1.5 | 22.9 | -0.7 | 19.8 | -2.3 | 5 | 24.8 | 31.6 | 16.4 | 15 | 22.3 | 5.4 | 21.1 | 7.9 | 5.9 | 31.6 | 10.9 | -2.3 | 11.6 | -2.3
2 | FC(F)(F)c1ccc(/C=C/c2nc(COc3ccc(CCCCn4ccnn4)cc3)co2)cc1 [Mubritinib] (top concentration 1000 nM) | 21.7 | 2.76 | 8.06 | 20.7 | 18.7 | 8.86 | -2.24 | 3.46 | 11.6 | 0.26 | 15.5 | 2.26 | 7.76 | 6.56 | 4.86 | 5.46 | 8.66 | 19.6 | 11.6 | 4.46
3 | COc1cc2c(cc1OC(C)C)[C@H](c1ccc(Cl)cc1)N(c1ccc(N(C)C[C@H]3CC[C@H](N4CCN(C)C(=O)C4)CC3)cc1)C(=O)C2 [NVP-CGM097] (top concentration 25000 nM) | -2.14 | 2.86 | 8.26 | -5.64 | -3.04 | -3.14 | -6.34 | 7.06 | -3.94 | 7.86 | 7.86 | 17.2 | 10.4 | -4.84 | 10.1 | -5.64 | -6.74 | 11.8 | 8.16 | 8.36
4 | CCOc1cc2ncc(C#N)c(Nc3ccc(OCc4ccccn4)c(Cl)c3)c2cc1NC(=O)/C=C/CN(C)C [Neratinib] (top concentration 1000 nM) | 2.88 | 5.68 | 1.88 | 1.28 | -0.72 | 2.38 | -0.32 | -0.22 | 2.28 | -0.52 | 6.28 | 1.18 | 2.28 | 1.28 | 3.58 | -0.62 | 1.08 | 1.38 | -0.72 | 4.28
5 | COc1ncc(-c2ccc3nccc(-c4ccnnc4)c3c2)cc1NS(=O)(=O)c1ccc(F)cc1F [Omipalisib] (top concentration 1000 nM) | -3 | 19.5 | 3.2 | 4 | -4 | 3.8 | 4.5 | 13.1 | 9.4 | -2.2 | 11.9 | 4 | 15.1 | 9.4 | 1.6 | -0.8 | 4.6 | 14 | 12.9 | -2.2
6 | CN1CCN(c2cc(C(=O)Nc3ccc4c(c3)-c3c(c(C(N)=O)nn3-c3ccc(F)cc3)CC4)c(Cl)cn2)CC1 [PHA-408] (top concentration 10000 nM) | 3.18 | 3.38 | 2.98 | -0.02 | -4.92 | -0.92 | -0.82 | 2.18 | 0.98 | -1.22 | 0.78 | -1.22 | 3.88 | -2.02 | 3.98 | 3.48 | 2.58 | 0.58 | 4.48 | -0.22
7 | OC[C@H]1O[C@@H](n2cnc3c2N=CNC[C@H]3O)C[C@@H]1O [Pentostatin] (top concentration 10000 nM) | -0.44 | 1.26 | -0.44 | -0.44 | 0.36 | -0.44 | -0.44 | -0.44 | -0.14 | -0.24 | -0.44 | -0.44 | -0.14 | -0.44 | -0.44 | -0.44 | -0.44 | -0.44 | -0.44 | -0.24
8 | CC(C)N(C[C@H]1O[C@@H](n2cnc3c(N)ncnc32)[C@H](O)[C@@H]1O)[C@H]1C[C@@H](CCc2nc3cc(C(C)(C)C)ccc3[nH]2)C1 [Pinometostat] (top concentration 1000 nM) | 0 | 0 | 0 | 0 | 0 | 0 | 0 | 0 | 0 | 0 | 0 | 0 | 0 | 0 | 0 | 0 | 0.2 | 0 | 0 | 0
9 | Cc1ccc(=O)n(-c2ccccc2)c1 [Pirfenidone] (top concentration 10000 nM) | 0 | 0 | 0 | 0 | 0 | 0 | 0 | 0 | 0 | 0 | 0 | 0 | 0 | 0 | 0 | 0 | 0 | 0 | 0 | 0
10 | NCCNc1ccc(NCCN)c2c1C(=O)c1ccncc1C2=O [Pixantrone] (top concentration 10000 nM) | -2.76 | 0.34 | -2.46 | -2.76 | -2.76 | -2.66 | -2.76 | -2.56 | -0.86 | -2.06 | -0.36 | -2.76 | -0.56 | -1.36 | -2.76 | -1.76 | -2.76 | -2.76 | -2.76 | -2.76
11 | c1cc(CN2CCCNCCNCCCNCC2)ccc1CN1CCCNCCNCCCNCC1 [Plerixafor] (top concentration 10000 nM) | 0 | 0 | 0 | 0 | 0 | 0 | 0 | 0 | 0 | 0 | 0.7 | 0 | 0 | 0 | 0 | 0 | 0 | 0 | 0 | 0
12 | O=C(c1ccc(OCCN2CCCCC2)cc1)c1c(-c2ccc(O)cc2)sc2cc(O)ccc12 [Raloxifene] (top concentration 10000 nM) | 0.82 | 3.92 | 0.92 | -0.48 | -1.38 | 5.02 | -2.28 | -2.28 | 3.32 | -1.88 | -0.28 | 0.42 | 0.52 | 1.62 | -0.38 | 4.52 | 1.72 | 1.42 | -2.28 | 2.92
13 | CN(C)C(=O)c1cc2cnc(Nc3ccc(N4CCNCC4)cn3)nc2n1C1CCCC1 [Ribociclib] (top concentration 10000 nM) | 3.18 | 0.18 | 1.58 | 2.18 | -2.02 | 2.78 | -1.62 | -1.42 | 0.68 | 0.78 | 8.18 | 0.38 | 1.68 | 2.28 | 4.18 | 1.68 | -1.12 | -1.02 | -0.92 | 1.18
14 | CN1CCN(CCOc2cc(OC3CCOCC3)c3c(Nc4c(Cl)ccc5c4OCO5)ncnc3c2)CC1 [Saracatinib] (top concentration 10000 nM) | 7.38 | 0.48 | 7.38 | 0.08 | -2.02 | -1.02 | -2.02 | -2.02 | 5.68 | 0.58 | 4.28 | 1.78 | 2.38 | 0.08 | 2.98 | 2.18 | 17.7 | 1.58 | 1.78 | 7.98
15 | C=CC(=O)Nc1cccc(Nc2nc(Nc3ccc(OCCOC)cc3)ncc2F)c1 [Spebrutinib] (top concentration 1000 nM) | 0.74 | 0.64 | -0.16 | -0.16 | -0.16 | -0.16 | 6.34 | 3.24 | 1.14 | -0.16 | 1.94 | -0.16 | -0.16 | 3.74 | 0.54 | -0.16 | 1.64 | -0.16 | -0.16 | -0.16
16 | C[C@@H]1CN(Cc2ccc(F)cc2)[C@@H](C)CN1C(=O)c1cc2c(C(=O)C(=O)N(C)C)cn(C)c2cc1Cl [Talmapimod] (top concentration 10000 nM) | 0 | 0 | 0 | 0 | 0 | 0 | 0 | 0 | 0 | 0 | 1 | 0 | 0 | 0.4 | 0 | 0.5 | 2.1 | 0 | 0 | 0
17 | C[C@@H](C(=O)O)c1ccc(-c2ccccc2)c(F)c1 [Tarenflurbil] (top concentration 10000 nM) | -0.16 | -0.16 | 4.14 | -0.16 | 4.74 | -0.16 | 4.34 | -0.16 | -0.16 | 3.64 | -0.16 | -0.16 | -0.16 | -0.16 | 0.64 | 0.54 | -0.16 | 0.14 | -0.16 | -0.16
18 | CNC(=O)c1cc(COc2nnc(Nc3ccc(Cl)cc3)c3ccoc23)ccn1 [Telatinib] (top concentration 10000 nM) | 0 | 0 | 0 | 0 | 0 | 0.9 | 0 | 0 | 0 | 0.9 | 1.6 | 0 | 0.9 | 0.2 | 0.7 | 0 | 0 | 0 | 0 | 0
